This is an account of results in BindingDB's records for PubMed 20126400 (University of Oklahoma, 2010).

Experiment in all cases: Ray2010 Assay 74
One test deals with T1, D(4) dopamine receptor (Homo sapiens, UniProt P21917).
T1 sequence (P21917 whole entry): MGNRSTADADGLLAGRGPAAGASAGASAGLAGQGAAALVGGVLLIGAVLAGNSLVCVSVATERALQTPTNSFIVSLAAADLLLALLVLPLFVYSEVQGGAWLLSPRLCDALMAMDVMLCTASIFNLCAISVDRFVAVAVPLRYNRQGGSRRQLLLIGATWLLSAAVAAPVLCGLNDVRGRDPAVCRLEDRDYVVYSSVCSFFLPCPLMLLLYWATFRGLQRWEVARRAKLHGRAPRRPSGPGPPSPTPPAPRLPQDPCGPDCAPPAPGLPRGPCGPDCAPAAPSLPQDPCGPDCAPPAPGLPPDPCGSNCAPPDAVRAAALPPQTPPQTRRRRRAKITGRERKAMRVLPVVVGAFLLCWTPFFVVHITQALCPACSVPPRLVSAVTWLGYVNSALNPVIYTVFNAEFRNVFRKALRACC
The text has this: (§1) Table S2 shows raw Ki data for the current study combined with data collected from the literature for the ten additional compounds.

Test [1] addresses Delta-type opioid receptor (Homo sapiens, UniProt P41143).
Source text: as §1

The target of the next test is Histamine H4 receptor (Homo sapiens, UniProt Q9H3N8).
Source text: as §1

Test [2] concerns the target Sodium-dependent serotonin transporter (Homo sapiens, UniProt P31645).
Source text: as §1

For a further test, the target named is Histamine H1 receptor (Homo sapiens, UniProt P35367).
Source text: as §1

Test [3] deals with Glutamate receptor ionotropic, NMDA 2A (Homo sapiens, UniProt Q12879).
Source text: as §1

For test [4], the target named is 5-hydroxytryptamine receptor 1D (Homo sapiens, UniProt P28221).
Source text: as §1

In another test the target is D(2) dopamine receptor (Homo sapiens, UniProt P14416).
Source text: as §1

Test [5] has as its target T2, Muscarinic acetylcholine receptor M2 (Homo sapiens, UniProt P08172).
T2 sequence (P08172 whole entry): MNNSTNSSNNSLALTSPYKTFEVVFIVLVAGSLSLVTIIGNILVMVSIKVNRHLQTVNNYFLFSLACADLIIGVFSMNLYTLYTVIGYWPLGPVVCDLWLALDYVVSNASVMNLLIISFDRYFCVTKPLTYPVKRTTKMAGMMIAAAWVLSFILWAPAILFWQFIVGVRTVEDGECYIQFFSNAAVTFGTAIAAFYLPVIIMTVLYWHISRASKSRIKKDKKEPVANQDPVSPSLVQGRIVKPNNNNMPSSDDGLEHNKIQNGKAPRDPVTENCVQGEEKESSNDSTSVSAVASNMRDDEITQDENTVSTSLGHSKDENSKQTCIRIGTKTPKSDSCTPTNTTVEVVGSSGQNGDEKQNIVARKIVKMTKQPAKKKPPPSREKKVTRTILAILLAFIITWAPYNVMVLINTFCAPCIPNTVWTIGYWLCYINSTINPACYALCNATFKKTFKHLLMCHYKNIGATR
Source text: as §1

In test [6] the target is Sodium-dependent noradrenaline transporter (Homo sapiens, UniProt P23975).
Source text: as §1

Test [7] deals with 5-hydroxytryptamine receptor 1B (Homo sapiens, UniProt P28222).
Source text: as §1

Test [8] concerns the target T3, Alpha-1B adrenergic receptor (Homo sapiens, UniProt P35368).
T3 sequence (P35368 whole entry): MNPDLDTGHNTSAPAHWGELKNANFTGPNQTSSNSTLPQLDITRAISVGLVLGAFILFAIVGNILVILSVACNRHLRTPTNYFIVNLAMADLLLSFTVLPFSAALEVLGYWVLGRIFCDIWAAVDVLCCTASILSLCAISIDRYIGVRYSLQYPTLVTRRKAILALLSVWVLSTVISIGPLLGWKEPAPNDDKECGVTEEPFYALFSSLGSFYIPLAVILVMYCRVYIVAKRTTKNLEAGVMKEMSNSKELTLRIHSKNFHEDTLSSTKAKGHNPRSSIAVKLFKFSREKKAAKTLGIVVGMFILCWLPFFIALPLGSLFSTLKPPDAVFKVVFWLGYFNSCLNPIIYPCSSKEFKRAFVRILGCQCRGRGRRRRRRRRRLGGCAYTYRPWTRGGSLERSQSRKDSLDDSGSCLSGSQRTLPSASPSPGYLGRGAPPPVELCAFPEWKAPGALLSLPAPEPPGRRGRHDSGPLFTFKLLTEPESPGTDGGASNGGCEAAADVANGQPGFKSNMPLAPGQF
Source text: as §1

Test [9] addresses 5-hydroxytryptamine receptor 5A (Homo sapiens, UniProt P47898).
Source text: as §1

Test [10] has as its target T4, Muscarinic acetylcholine receptor M1 (Homo sapiens, UniProt P11229).
T4 sequence (P11229 whole entry): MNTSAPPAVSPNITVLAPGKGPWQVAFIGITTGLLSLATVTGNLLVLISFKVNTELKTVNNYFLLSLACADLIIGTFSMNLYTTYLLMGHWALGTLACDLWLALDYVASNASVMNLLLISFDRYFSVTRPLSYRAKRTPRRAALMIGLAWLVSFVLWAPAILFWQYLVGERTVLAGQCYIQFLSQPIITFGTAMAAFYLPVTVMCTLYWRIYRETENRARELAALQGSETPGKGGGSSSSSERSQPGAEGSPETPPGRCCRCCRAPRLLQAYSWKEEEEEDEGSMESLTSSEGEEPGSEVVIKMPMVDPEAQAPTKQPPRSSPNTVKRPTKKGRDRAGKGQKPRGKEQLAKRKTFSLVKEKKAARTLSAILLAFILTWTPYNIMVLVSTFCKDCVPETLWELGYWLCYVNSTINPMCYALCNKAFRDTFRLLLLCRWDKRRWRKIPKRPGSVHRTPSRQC
Source text: as §1

Chain of D(2) dopamine receptor (P14416 whole entry): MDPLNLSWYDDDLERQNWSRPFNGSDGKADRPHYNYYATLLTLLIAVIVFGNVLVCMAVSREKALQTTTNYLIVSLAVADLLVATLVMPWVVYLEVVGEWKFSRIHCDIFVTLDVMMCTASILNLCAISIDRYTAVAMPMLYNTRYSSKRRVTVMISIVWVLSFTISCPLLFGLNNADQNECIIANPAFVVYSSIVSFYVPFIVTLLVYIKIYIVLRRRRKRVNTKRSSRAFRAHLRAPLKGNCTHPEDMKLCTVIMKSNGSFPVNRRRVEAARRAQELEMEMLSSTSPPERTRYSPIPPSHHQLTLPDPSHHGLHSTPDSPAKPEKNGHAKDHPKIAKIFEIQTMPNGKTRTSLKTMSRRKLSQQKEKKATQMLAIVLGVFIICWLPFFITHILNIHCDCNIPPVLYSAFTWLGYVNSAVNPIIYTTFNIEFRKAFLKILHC
Chain of 5-hydroxytryptamine receptor 1D (P28221 whole entry): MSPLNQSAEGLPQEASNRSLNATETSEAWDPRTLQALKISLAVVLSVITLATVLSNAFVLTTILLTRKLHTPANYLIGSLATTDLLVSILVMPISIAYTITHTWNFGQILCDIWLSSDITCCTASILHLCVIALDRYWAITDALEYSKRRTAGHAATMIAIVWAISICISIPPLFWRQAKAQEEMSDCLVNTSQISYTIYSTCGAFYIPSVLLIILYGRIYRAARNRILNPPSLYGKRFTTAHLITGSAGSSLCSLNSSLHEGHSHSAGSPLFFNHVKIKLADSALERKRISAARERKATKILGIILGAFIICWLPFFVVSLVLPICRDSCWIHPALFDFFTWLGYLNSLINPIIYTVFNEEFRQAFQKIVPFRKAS
Chain of Histamine H1 receptor (P35367 whole entry): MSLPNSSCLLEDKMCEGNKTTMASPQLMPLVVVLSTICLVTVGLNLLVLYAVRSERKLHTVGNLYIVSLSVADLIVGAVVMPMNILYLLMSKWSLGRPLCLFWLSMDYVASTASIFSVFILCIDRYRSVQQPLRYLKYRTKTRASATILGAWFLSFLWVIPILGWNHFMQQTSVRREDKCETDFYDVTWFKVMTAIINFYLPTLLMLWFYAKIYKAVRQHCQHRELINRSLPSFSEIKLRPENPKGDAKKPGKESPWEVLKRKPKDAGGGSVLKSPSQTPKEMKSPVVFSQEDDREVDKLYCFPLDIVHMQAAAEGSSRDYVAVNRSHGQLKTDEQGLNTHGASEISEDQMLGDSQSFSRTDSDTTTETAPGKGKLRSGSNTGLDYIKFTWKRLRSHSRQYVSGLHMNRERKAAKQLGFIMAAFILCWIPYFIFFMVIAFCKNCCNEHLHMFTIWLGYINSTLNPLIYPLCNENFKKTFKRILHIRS
Chain of Sodium-dependent serotonin transporter (P31645 whole entry): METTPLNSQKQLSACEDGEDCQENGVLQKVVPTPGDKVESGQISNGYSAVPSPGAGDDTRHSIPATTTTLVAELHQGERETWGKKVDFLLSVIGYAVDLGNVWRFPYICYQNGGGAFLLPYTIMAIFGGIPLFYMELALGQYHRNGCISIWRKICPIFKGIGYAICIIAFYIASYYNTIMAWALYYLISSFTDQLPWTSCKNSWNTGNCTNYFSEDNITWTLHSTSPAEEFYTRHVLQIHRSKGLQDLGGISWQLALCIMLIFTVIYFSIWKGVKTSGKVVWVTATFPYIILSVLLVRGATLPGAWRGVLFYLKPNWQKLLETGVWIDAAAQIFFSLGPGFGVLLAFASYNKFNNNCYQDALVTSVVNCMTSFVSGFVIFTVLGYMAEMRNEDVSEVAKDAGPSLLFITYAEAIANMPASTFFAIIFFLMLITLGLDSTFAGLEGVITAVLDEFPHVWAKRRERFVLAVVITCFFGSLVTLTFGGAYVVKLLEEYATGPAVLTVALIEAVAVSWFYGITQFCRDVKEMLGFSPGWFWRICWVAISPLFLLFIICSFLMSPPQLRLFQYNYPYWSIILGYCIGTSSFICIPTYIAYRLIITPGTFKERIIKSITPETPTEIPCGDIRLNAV
Chain of Sodium-dependent noradrenaline transporter (P23975 whole entry): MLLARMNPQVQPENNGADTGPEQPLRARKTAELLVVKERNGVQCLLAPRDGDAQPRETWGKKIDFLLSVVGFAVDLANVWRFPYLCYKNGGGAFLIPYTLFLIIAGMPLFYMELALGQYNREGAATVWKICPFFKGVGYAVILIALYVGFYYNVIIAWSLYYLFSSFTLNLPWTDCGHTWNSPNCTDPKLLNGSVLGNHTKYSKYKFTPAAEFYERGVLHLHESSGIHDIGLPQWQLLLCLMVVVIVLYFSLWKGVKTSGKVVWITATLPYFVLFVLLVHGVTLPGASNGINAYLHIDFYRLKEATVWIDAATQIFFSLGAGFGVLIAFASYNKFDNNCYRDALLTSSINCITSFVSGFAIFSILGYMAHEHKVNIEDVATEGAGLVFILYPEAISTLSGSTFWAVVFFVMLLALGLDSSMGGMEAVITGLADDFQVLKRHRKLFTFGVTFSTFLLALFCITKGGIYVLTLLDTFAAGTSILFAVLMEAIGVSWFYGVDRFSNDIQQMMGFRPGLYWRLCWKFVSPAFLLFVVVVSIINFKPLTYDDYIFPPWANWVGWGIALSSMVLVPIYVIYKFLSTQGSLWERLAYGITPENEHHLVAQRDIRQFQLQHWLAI
Chain of Histamine H4 receptor (Q9H3N8 whole entry): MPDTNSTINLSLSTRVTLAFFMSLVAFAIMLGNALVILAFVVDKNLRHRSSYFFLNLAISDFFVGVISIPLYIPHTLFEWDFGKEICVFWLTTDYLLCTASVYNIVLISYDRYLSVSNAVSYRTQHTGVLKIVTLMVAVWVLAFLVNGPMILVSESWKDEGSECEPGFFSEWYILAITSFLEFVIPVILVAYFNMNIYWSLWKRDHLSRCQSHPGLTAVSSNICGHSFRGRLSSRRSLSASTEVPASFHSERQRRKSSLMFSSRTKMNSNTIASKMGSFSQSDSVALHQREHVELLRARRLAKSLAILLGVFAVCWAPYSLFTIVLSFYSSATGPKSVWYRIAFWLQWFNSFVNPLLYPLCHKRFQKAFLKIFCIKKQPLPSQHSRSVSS
Chain of Delta-type opioid receptor (P41143 whole entry): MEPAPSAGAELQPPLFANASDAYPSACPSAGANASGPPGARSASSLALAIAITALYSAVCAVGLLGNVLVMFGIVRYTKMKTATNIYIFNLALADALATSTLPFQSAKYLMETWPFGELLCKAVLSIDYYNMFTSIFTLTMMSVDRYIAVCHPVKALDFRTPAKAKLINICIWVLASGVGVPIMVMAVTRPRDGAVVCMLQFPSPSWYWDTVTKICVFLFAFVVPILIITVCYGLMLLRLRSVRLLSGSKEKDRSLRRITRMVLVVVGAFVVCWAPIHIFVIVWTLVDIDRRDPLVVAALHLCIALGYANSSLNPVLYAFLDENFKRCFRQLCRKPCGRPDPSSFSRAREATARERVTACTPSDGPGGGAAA
Chain of Glutamate receptor ionotropic, NMDA 2A (Q12879 whole entry): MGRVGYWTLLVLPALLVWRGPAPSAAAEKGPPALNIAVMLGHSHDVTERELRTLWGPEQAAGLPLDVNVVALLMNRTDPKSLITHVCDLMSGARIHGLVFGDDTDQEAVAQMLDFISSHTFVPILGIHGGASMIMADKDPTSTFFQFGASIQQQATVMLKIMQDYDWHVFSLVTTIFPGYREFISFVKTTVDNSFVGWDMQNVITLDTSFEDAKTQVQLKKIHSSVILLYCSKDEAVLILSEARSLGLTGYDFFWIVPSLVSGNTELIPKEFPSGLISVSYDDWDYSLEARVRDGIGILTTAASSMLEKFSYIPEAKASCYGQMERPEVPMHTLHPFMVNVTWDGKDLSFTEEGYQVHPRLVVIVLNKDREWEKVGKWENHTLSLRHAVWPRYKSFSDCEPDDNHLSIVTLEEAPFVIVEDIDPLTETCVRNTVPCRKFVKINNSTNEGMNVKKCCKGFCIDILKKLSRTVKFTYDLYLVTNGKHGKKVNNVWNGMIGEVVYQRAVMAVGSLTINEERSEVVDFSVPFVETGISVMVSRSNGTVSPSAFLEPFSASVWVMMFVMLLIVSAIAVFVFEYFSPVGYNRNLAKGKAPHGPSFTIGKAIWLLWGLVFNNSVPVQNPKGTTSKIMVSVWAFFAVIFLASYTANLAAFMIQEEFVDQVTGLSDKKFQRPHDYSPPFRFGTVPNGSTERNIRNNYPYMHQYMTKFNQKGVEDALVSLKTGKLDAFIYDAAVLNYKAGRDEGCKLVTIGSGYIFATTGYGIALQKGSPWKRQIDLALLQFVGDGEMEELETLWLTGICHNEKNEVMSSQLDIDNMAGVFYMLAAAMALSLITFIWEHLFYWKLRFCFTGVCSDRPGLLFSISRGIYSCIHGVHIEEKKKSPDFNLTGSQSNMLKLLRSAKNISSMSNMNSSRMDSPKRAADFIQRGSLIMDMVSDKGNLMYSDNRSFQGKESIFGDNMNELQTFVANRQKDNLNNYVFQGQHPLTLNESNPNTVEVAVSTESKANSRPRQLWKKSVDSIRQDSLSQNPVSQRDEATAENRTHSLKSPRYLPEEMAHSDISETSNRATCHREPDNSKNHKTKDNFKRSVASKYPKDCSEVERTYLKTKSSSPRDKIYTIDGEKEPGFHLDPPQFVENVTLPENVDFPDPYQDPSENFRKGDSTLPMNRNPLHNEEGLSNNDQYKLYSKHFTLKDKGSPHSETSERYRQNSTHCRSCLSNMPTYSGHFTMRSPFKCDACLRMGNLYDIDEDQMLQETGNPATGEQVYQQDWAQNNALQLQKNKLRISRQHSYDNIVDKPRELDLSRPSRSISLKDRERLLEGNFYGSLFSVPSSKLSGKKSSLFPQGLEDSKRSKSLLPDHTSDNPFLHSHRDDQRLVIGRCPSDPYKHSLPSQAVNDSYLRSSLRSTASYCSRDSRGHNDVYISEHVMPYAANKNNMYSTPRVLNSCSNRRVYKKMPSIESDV

Turning to `COc1cc(CCN)cc(OC)c1OC` [3,4,5-trimethoxyphenylethylamine], the Ki (at D(4) dopamine receptor; in [1]; at Histamine H4 receptor; in [2]; on Histamine H1 receptor; in [3]) was more than 10 µM each time. The inhibitory constant (Ki) (in test [4]; at D(2) dopamine receptor; in test [5]; in test [6]; in [7]; in test [8]) was more than 10 µM throughout. The Ki in test [9] and in test [10] was more than 10 µM throughout.

Turning to `COc1ccc2[nH]cc(CCN(C)C(C)C)c2c1` [5-meo-mipt], the Ki at D(4) dopamine receptor was 6.33 µM; in test [1], more than 10 µM; on Histamine H4 receptor, more than 10 µM; in test [2], 6.41 µM; on Histamine H1 receptor it was 4.82 µM; in test [3], more than 10 µM. The Ki in [4] is 0.0225 µM; on D(2) dopamine receptor, more than 10 µM; in [5], more than 10 µM; in test [6], more than 10 µM; in [7], 0.303 µM; in [8] it was more than 10 µM. Also, the Ki in [9] was 0.953 µM; in [10] it was more than 10 µM.

For `CN(C)CCc1c[nH]c2cc(F)ccc12` [6-f-dmt], the Ki at D(4) dopamine receptor is 1.45 µM; in [1], more than 10 µM; at Histamine H4 receptor, more than 10 µM; in test [2], 0.145 µM; at Histamine H1 receptor it was 0.0466 µM; in test [3] it was more than 10 µM. In addition, the Ki in test [4] is 0.0554 µM; at D(2) dopamine receptor it was 0.61 µM; in test [5], more than 10 µM; in test [6], more than 10 µM; in test [7], 0.218 µM; in test [8], more than 10 µM. For the same compound, the inhibition constant (Ki) is 0.96 µM in test [9] and more than 10 µM in test [10].

As to `COc1cc(CC(C)N)c(OC)cc1C` (stereo not drawn) [(+/-)2-(2,5-Dimethoxy-4-methyl-phenyl)-1-methyl-ethylamine], the Ki (at D(4) dopamine receptor; in test [1]; on Histamine H4 receptor; in test [2]; on Histamine H1 receptor; in test [3]) was more than 10 µM in each case. Moreover, the inhibition constant (Ki) in test [4] was 0.209 µM; on D(2) dopamine receptor it was more than 10 µM; in [5], more than 10 µM; in test [6], more than 10 µM; in [7], more than 10 µM; in [8] it was more than 10 µM. The Ki in [9] and in test [10] was more than 10 µM throughout.

As to `CC(C)N(CCc1c[nH]c2ccccc12)C(C)C` [dipt], the Ki at D(4) dopamine receptor is more than 10 µM; in test [1] it was more than 10 µM; on Histamine H4 receptor, more than 10 µM; in test [2] it was 1.26 µM; at Histamine H1 receptor it was 3.58 µM; in test [3], more than 10 µM. In addition, the Ki in [4] was 3.74 µM; at D(2) dopamine receptor it was more than 10 µM; in test [5], more than 10 µM; in [6], more than 10 µM; in test [7] it was more than 10 µM; in [8] it was more than 10 µM. Moreover, the Ki in test [9] and in test [10] was more than 10 µM in each case.

Turning to `CCCN(CCC)CCc1c[nH]c2ccccc12` [dpt], the Ki at D(4) dopamine receptor was 2.01 µM; in test [1], more than 10 µM; on Histamine H4 receptor it was more than 10 µM; in [2], 0.157 µM; at Histamine H1 receptor, 0.125 µM; in [3], more than 10 µM. Also, the Ki in test [4] is 0.619 µM; on D(2) dopamine receptor, 9.25 µM; in test [5] it was more than 10 µM; in [6], more than 10 µM; in test [7], 0.854 µM; in test [8], 0.443 µM. For the same compound, the Ki was 4.37 µM in [9] and more than 10 µM in [10].

In the case of “CAS_82830-44-2::(2R)-1-(4-iodo-2,5-dimethoxyphenyl)propan-2-amine::DOI,(-)::US20250270173, Compound DOI”, the Ki on D(4) dopamine receptor is more than 10 µM; in test [1] it was more than 10 µM; at Histamine H4 receptor it was more than 10 µM; in test [2], 0.685 µM; at Histamine H1 receptor it was 1.76 µM; in test [3] it was more than 10 µM. For the same compound, the Ki was 0.458 µM in test [4]; more than 10 µM at D(2) dopamine receptor; 1.99 µM in test [5]; more than 10 µM in [6]; more than 10 µM in test [7]; more than 10 µM in test [8]. The Ki in test [9] is more than 10 µM; in test [10], 2.72 µM.
